Measurements taken from US20110045520A1, “FATTY ACID MARKERS FOR THE DIAGNOSIS, PROGNOSIS AND MANAGEMENT OF CARDIOVASCULAR DISEASE” (priority 2007, published 2011).

Molecular target: T1, human serum albumin (HSA) in pooled normal serum (Homo sapiens, UniProt P02768)
T1 construct: from tissue; host or cells: pooled normal human serum
Experiment: Cobalt binding assay, HSA in pooled normal serum incubated with individual unesterified fatty acids
Conditions: fatty acid:HSA molar ratios of about 8; most apparent with HSA in pooled normal serum
Protocol: The concentrations of twelve unesterified fatty acids were measured in vitro to determine if differences in individual fatty acid levels affect Co(II)—albumin interactions in the cobalt binding assay. The effect of individual fatty acid concentrations on HSA was evaluated in the presence of HSA from two different sources: (1) purified commercial HSA with defined buffer conditions, and (2) USA in pooled normal serum. The cobalt binding assays were performed after incubation of HSA with each unesterified fatty acid for 12 hours at room temperature. The concentrations of the individual FFAs were determined by measuring total FFAs levels before and after the addition of the specific FFAs to pooled normal serum. HSA concentrations were measured by standard colorimetric protein assays. Molar ratios were calculated from the concentration values determined for the individual specific FFAs with respect to the concentrations of HSA measured in each sample.

T1 sequence (P02768 25-609): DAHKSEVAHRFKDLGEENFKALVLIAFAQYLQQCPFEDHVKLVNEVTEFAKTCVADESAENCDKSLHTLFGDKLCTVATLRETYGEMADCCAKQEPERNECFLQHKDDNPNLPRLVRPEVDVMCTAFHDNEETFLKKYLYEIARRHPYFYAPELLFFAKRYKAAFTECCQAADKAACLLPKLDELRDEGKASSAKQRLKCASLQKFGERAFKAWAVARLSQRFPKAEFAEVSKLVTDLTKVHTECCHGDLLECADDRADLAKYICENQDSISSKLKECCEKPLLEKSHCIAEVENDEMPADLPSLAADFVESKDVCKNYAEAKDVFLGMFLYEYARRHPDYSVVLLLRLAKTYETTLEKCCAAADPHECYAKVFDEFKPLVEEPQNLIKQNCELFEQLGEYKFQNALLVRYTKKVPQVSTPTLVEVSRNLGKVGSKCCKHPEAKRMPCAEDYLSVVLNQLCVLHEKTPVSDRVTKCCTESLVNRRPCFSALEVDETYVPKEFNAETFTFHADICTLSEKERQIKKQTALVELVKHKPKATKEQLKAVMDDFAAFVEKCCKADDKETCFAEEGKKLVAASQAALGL

| effect on the percent reduction of the Co[II]-HSA binding assay | Compound |
| --- | --- |
| significant effect | CCCCC/C=C\C/C=C\C/C=C\C/C=C\CCCC(=O)O [Arachidonic acid] |
| significant effect | CCCCCCCC/C=C\CCCCCCCC(=O)O [Oleic acid] |
